Measurements taken from ChEMBL document CHEMBL4414679, “Discovery of 4,6-pyrimidinediamine derivatives as novel dual EGFR/FGFR inhibitors aimed EGFR/FGFR1-positive NSCLC” (Eur J Med Chem, 2020).
Calls of active or inactive are those of the source. The calls are words filed in the database; no cut-off is given here.

Experiments:
PC-9 = test: Antiproliferative activity against human PC9 cells assessed as inhibition of cell growth at 10 uM incubated for 48 hrs by MTT assay relative to control; assay type: functional; conditions: PC-9, 48 h
NCI-H226 = test: Antiproliferative activity against human NCI-H226 cells assessed as inhibition of cell growth at 10 uM incubated for 48 hrs by MTT assay relative to control; assay type: functional; conditions: NCI-H226, 48 h
[1] = biological target: T1, Fibroblast growth factor receptor 1 (Homo sapiens, UniProt P11362); conditions: 10 uM
T1 sequence (P11362 22-822 limits assumed): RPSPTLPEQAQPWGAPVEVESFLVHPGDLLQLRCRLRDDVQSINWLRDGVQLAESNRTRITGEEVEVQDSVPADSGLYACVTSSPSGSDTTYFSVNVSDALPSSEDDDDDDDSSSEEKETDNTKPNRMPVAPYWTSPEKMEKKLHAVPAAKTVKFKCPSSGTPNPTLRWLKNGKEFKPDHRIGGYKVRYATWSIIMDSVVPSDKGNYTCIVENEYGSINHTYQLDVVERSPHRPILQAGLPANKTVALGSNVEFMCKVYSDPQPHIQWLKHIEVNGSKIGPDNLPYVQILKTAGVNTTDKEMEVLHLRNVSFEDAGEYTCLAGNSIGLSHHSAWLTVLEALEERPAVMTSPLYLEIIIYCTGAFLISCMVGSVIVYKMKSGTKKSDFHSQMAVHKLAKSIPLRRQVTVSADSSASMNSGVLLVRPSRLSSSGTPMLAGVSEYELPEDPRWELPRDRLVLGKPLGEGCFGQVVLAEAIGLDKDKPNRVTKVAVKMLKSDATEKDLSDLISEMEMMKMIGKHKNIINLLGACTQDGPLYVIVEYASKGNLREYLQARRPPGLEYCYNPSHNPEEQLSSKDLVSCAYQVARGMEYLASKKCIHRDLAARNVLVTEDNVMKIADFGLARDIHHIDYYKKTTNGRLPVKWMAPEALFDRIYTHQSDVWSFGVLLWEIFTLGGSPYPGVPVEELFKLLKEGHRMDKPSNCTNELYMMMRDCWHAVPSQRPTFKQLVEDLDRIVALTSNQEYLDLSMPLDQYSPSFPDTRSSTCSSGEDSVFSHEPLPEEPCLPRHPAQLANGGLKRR
Description: Inhibition of FGFR in serum-starved human H520 cells assessed as reduction in FGFR-induced AKT phosphorylation at 10 uM incubated for 1 hr by Western blot analysis

HCC827 = test: Antiproliferative activity against human HCC827 cells assessed as inhibition of cell growth at 10 uM incubated for 48 hrs by MTT assay relative to control; assay type: functional; conditions: HCC827, 48 h
[2] = biological target: T1, Fibroblast growth factor receptor 1; conditions: 10 uM; remark: listed apart in the source
Description: Inhibition of FGF-induced FGFR1 phosphorylation in serum-starved human H520 cells at 10 uM incubated for 1 hr by Western blot analysis

NCI-H520 = test: Antiproliferative activity against human NCI-H520 cells assessed as inhibition of cell growth at 10 uM incubated for 48 hrs by MTT assay relative to control; assay type: functional; conditions: NCI-H520, 48 h
NCI-H1581 = test: Antiproliferative activity against human NCI-H1581 cells assessed as inhibition of cell growth at 10 uM incubated for 48 hrs by MTT assay relative to control; assay type: functional; conditions: NCI-H1581, 48 h

inhibition [1]: Active
inhibition [2]: Active
Compound: CCN1CCN(c2ccc(Nc3cc(N(C)C(=O)Nc4c(Cl)c(OC)cc(OC)c4Cl)ncn3)cc2)CC1 [INFIGRATINIB]
inhibition at 10 µM (PC-9): 55.5%
inhibition at 10 µM (NCI-H226): 67.3%
inhibition at 10 µM (HCC827): 32%
inhibition at 10 µM (NCI-H520): 77.1%
inhibition at 10 µM (NCI-H1581): 83.7%
